Source: US5830868A, “Substituted DI- and tripeptide inhibitors of protein: farnesyl transferase” (Warner-Lambert Company, priority 1996, dated 1998)
Square brackets hold non-standard residues; d marks the D form. Peptide text beside a SMILES is read from it. * marks the point of attachment. Cbz = O=C(OCc1ccccc1)*; Bn = c1ccc(C*)cc1

Target: T1, rat brain farnesyl protein transferase (PFT) (Rattus norvegicus, UniProt Q02293+Q04631)
T1 construct: 40-fold purified rat brain farnesyl protein transferase; from tissue; host or cells: rat brain
Test: PFT inhibitory activity assay (radiolabeled farnesyl pyrophosphate, biotinyl peptide, streptavidin beads)
Format: biochemical
Conditions: 40-fold purified rat brain enzyme; 0.12 μM [3H]FPP, 0.1 μM biotinyl-Ahe-Tyr-Lys-Cys-Val-Ile-Met; 37° C., 30 minutes; read-out: IC50 (μM) against PFT
Description: The PFT inhibitory activity of compounds of Formula I was assayed in 30 mM potassium phosphate buffer, pH 7.4, containing 7 mM DTT, 1.2 mM MgCl2, 0.1 mM leupeptin, 0.1 mM pepstatin and 0.2 mM phenylmethylsulfonyl fluoride. Assays were performed in 96 well plates (Wallec) and employed solutions composed of varying concentrations of a compound of Formula I in 100% DMSO. Upon addition of both substrates, radiolabeled farnesyl pyrophosphate ([1-^3 H], specific activity 15--30 Ci/mmol, final concentration 0.12 μM) and (biotinyl)-Ahe-Tyr-Lys-Cys-Val-Ile-Met peptide (final concentration 0.1 μM), the enzyme reaction was started by addition of 40-fold purified rat brain farnesyl protein transferase. After incubation at 37° C. for 30 minutes, the reaction was terminated by diluting the reaction 2.5-fold with a stop buffer containing 1.5M magnesium acetate, 0.2M H3 PO4, 0.5% BSA, and strepavidin beads (Amersham) at a concentration of 1.3 mg/mL. After allowing the plate to settle for 30 minutes at room temperature, radioactivity was quantitated on a microBeta counter (model 1450, Wallec). Compounds of Formula I show IC50 values of 0.5 nM to 80 μM (see data table) in this assay and are thus valuable inhibitors of protein: farnesyl transferase enzyme which may be used in the medical treatment of tissue proliferative diseases, including cancer and restenosis.

T1 sequence (Q02293 whole entry, one chain of several): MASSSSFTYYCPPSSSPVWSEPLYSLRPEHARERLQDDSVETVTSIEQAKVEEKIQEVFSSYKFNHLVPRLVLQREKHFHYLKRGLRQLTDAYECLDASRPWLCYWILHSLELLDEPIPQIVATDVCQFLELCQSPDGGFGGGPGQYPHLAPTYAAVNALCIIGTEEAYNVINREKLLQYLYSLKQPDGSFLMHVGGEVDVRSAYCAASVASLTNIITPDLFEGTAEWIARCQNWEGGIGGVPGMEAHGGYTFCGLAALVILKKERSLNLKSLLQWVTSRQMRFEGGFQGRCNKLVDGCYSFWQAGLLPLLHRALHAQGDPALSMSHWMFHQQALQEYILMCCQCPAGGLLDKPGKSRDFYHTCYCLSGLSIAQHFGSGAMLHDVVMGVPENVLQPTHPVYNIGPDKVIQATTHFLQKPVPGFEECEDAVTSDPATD

IC50 [µM] | SMILES
0.1 | COC(=O)[C@H](COCc1ccccc1)NC(=O)C(C)(Cc1ccc(OCc2ccccc2)cc1)NC(=O)[C@H](Cc1c[nH]cn1)NC(=O)OCc1ccccc1 (mixture of isomers) [Example 10, N-[α-Methyl-N-[N-[(phenylmethoxy)carbonyl]-L-histidyl]-O-(phenylmethyl)-DL-tyrosyl]-O-(phenylmethyl)-L-serine. methyl ester]
3.7 | CCOc1ccc(NC(=O)N[C@@H](Cc2cnc[nH]2)C(=O)N[C@H](Cc2ccc(OCc3ccccc3)cc2)C(=O)NCCCOc2ccccc2)cc1 (stereo in doubt) [Example 25, (S,R)-N-[2-(4-Benzyloxy-phenyl)-1-(3-phenoxy-propylcarbamoyl)-ethyl]-2-[3-(4-ethoxy-phenyl)-ureido]-3-(3H-imidazol-4-yl)-propionamide]
11 | Cc1ccc(S(=O)(=O)N[C@@H](Cc2cnc[nH]2)C(=O)N[C@H](Cc2ccc(OCc3ccccc3)cc2)C(=O)N2CCN(Cc3ccccc3)CC2)cc1 (stereo in doubt) [Example 28, (S,R)-N-[1-(4-Benzyloxy-benzyl)-2-(4-benzyl-piperazin-1-yl)-2-oxo-ethyl]-3-(3H-imidazol-4-yl)-2-(toluene-4-sulfonylamino)-propionamide]
2.1 | O=C(Nc1ccccc1)NC(Cc1c[nH]cn1)C(=O)NC(Cc1ccc(OCc2ccccc2)cc1)C(=O)NCCCOc1ccccc1 [5 (3), PhNHCO--D--His--Tyr(OBn)--CONHCH2 CH2 CH2 OPh]
7.3 | CCCCNC(=O)NC(Cc1cnc[nH]1)C(=O)NC(Cc1ccc(OCc2ccccc2)cc1)C(=O)NCCCCc1ccccc1 [5 (4), BuNHCO--D--His--Tyr(OBn)--CONH(CH2)4 Ph]
0.64 | O=C(N[C@H](Cc1c[nH]cn1)C(=O)N[C@@H](Cc1ccc(OCc2ccccc2)cc1)C(=O)NCCCOc1ccccc1)OCc1ccccc1 [5 (23), BnOCO--D--His--Tyr(OBn)CONHCH2 CH2 CH2 OPh]
0.73 | COC(=O)C(CCSC)NC(=O)C(Cc1ccc(OCc2ccccc2)cc1)NC(=O)C(Cc1cnc[nH]1)NC(=O)NCCc1ccccc1 [5 (28), PhCH2 CH2 NHCO--D--His--Tyr(OBn)CONH--Met--CO2 Me]
73 | O=C(Cc1ccccc1)N[C@H](Cc1c[nH]cn1)C(=O)N[C@@H](Cc1ccc(OCc2ccccc2)cc1)C(=O)N1CCN(Cc2ccccc2)CC1 [5 (30), PhCH2 CO--D--His--Tyr(OBn)CO(4-Bn-piperazin-1-yl)]
0.76 | O=C(N[C@H](Cc1cnc[nH]1)C(=O)N[C@@H](Cc1ccc(OCc2ccccc2)cc1)C(=O)NCCc1ccccc1)N[C@@H]1C[C@H]1c1ccccc1 [5 (31), (t-2-Ph-c-propyl)-NHCO--D--His--Tyr(OBn)CONHCH2 CH2 Ph]
66 | O=C(NC1CCCCC1)N[C@H](Cc1c[nH]cn1)C(=O)N[C@@H](Cc1ccc(OCc2ccccc2)cc1)C(=O)NCc1ccccc1 [5 (35), c-hexyl-NHCO--D--His--Tyr(OBn)CONHCH2 Ph]
1.9 | O=C(CCc1ccccc1)N[C@H](Cc1c[nH]cn1)C(=O)N[C@@H](Cc1ccc(OCc2ccccc2)cc1)C(=O)NCCOCc1ccccc1 [5 (36), PhCH2 CH2 CO--D--His--Tyr(OBn)CONHCH2 CH2 OBn]
0.75 | CC(C)NC(=O)NC(Cc1cnc[nH]1)C(=O)NC(Cc1ccc(OCc2ccccc2)cc1)C(=O)NCc1ccccc1 [5 (40), (CH3)2 CHNHCO--D--His--Tyr(OBn)CONHCH2 Ph]
1 | O=C(Nc1ccc(Oc2ccccc2)cc1)NC(Cc1c[nH]cn1)C(=O)NC(Cc1ccc(OCc2ccccc2)cc1)C(=O)NCCc1ccccc1 [5 (46), (4-PhOPh)NHCO--D--His--Tyr(OBn)--CONHCH2 CH2 Ph]
2.9 | COc1ccccc1CCCNC(=O)[C@H](Cc1ccc(OCc2ccccc2)cc1)NC(=O)[C@@H](Cc1c[nH]cn1)NS(=O)(=O)c1ccc(C)cc1 [5 (49), (4-MePh)SO2 --D--His--Tyr(OBn)--CONHCH2 CH2 CH2 --(2-MeO--Ph)]
1.6 | O=C(NCc1ccccc1)N[C@H](Cc1c[nH]cn1)C(=O)N[C@@H](Cc1ccc(OCc2ccccc2)cc1)C(=O)NOCc1ccccc1 [5 (52), BnNHCO--D--His--Tyr(OBn)CONHOBn]
1.1 | O=C(Nc1cccc2ccccc12)N[C@H](Cc1c[nH]cn1)C(=O)N[C@@H](Cc1ccc(OCc2ccccc2)cc1)C(=O)NCCOCc1ccccc1 [5 (56), 1-napthyl-NHCO--D--His--Tyr(OBn)CONHCH2 CH2 OBn]

IC50 [µM] | SMILES
20 | O=C(Nc1cccc2ccccc12)N[C@H](Cc1c[nH]cn1)C(=O)N[C@@H](Cc1ccc(OCc2ccccc2)cc1)C(=O)NCCCCc1ccccc1 [5 (59), 1-napthyl-NHCO--D--His--Tyr(OBn)CONHCH2 CH2 CH2 CH2 Ph]
1.4 | O=C(Nc1cccc2ccccc12)N[C@H](Cc1c[nH]cn1)C(=O)N[C@@H](Cc1ccc(OCc2ccccc2)cc1)C(=O)NCc1ccccc1 [5 (60), 1-napthyl-NHCO--D--His--Tyr(OBn)CONHCH2 Ph]
7.2 | CCOc1ccc(NC(=O)N[C@H](Cc2c[nH]cn2)C(=O)N[C@@H](Cc2ccc(OCc3ccccc3)cc2)C(=O)NCCOCc2ccccc2)cc1 [5 (61), (4-EtOPh)NHCO--D--His--Tyr(OBn)CONHCH2 CH2 OBn]
1.5 | O=C(NC(Cc1cnc[nH]1)C(=O)NC(Cc1ccc(OCc2ccccc2)cc1)C(=O)NCCSCc1ccccc1)OCc1ccccc1 [5 (62), BnOCO--D--His--Tyr(OBn)CONHCH2 CH2 SBn]
1 | CCOc1ccc(NC(=O)NC(Cc2cnc[nH]2)C(=O)NC(Cc2ccc(OCc3ccccc3)cc2)C(=O)NCCCOc2ccccc2)cc1 (centres unmarked) [5 (63), (4-EtOPh)NHCO--His--Tyr(OBn)CONHCH2 CH2 CH2 OPh]
1.7 | O=C(NC(Cc1c[nH]cn1)C(=O)NC(Cc1ccc(OCc2ccccc2)cc1)C(=O)NCCCCc1ccccc1)OCc1ccccc1 [5 (64), BnOCO--D--His--Tyr(OBn)CONHCH2 CH2 CH2 CH2 Ph]
0.48 | COc1ccccc1CCCNC(=O)C(Cc1ccc(OCc2ccccc2)cc1)NC(=O)C(Cc1c[nH]cn1)NC(=O)Cc1ccccc1 [5 (69), PhCH2 CO--D--His--Tyr(OBn)CONH(CH2)3 --(2-MeO--Ph)]
3 | CC(C)NC(=O)N[C@H](Cc1c[nH]cn1)C(=O)N[C@@H](Cc1ccc(OCc2ccccc2)cc1)C(=O)NCCCCc1ccccc1 [5 (79), (CH3)2 CHNHCO--D--His--Tyr(OBn)CONHCH2 CH2 CH2 CH2 Ph]
1.6 | O=C(CCc1ccccc1)NC(Cc1c[nH]cn1)C(=O)NC(Cc1ccc(OCc2ccccc2)cc1)C(=O)NCc1ccccc1 [5 (80), PhCH2 CH2 CO--D--His--Tyr(OBn)CONHCH2 Ph]
4.4 | NC(=O)[C@H](COCc1ccccc1)NC(=O)[C@H](Cc1ccc(OCc2ccccc2)cc1)NC(=O)[C@H](Cc1c[nH]cn1)NC(=O)OCc1ccccc1 [Example 1, Nα -[N-[N-[(Phenylmethoxy)carbonyl]-L-histidyl]-O-(phenylmethyl)-L-tyrosyl]-O-(phenylmethyl)-L-serinamide] (Cbz-His-Tyr(Bn)-Ser(Bn)-NH2)
1 | O=C(NCc1ccccc1)N[C@@H](Cc1c[nH]cn1)C(=O)N[C@@H](Cc1ccc(OCc2ccccc2)cc1)C(=O)NCCCOc1ccccc1 [Example 4]
0.42 | COC(=O)[C@H](COCc1ccccc1)NC(=O)[C@H](Cc1ccc(OCc2ccccc2)cc1)NC(=O)[C@H](Cc1c[nH]cn1)NC(=O)OCc1ccccc1 [Example 6, N-[N-[N-[(Phenylmethoxy)carbonyl]-L-histidyl]-O-(phenylmethyl)-L-tyrosyl]-O-(phenylmethyl)-L-serine, methyl ester] (Cbz-His-Tyr(Bn)-Ser(Bn)-OMe)
0.26 | O=C(N[C@@H](Cc1c[nH]cn1)C(=O)N[C@@H](Cc1ccc(OCc2ccccc2)cc1)C(=O)N[C@@H](COCc1ccccc1)C(=O)O)OCc1ccccc1 [Example 7, N-[N-[N-[(Phenylmethoxy)carbonyl]-L-histidyl]-O-(phenylmethyl)-L-tyrosyl]-O-(phenylmethyl)-L-serine] (Cbz-His-Tyr(Bn)-Ser(Bn)-OH)
0.074 | COC(=O)[C@H](COCc1ccccc1)NC(=O)[C@H](Cc1ccc(OCc2ccccc2)cc1)NC(=O)[C@@H](Cc1c[nH]cn1)NC(=O)OCc1ccccc1 [Example 8, N-[N-[N-[(Phenylmethoxy)carbonyl]-D-histidyl]-O-(phenylmethyl)-L-tyrosyl]-O-(phenylmethyl)-L-serine, methyl ester] (Cbz-[dH]-Tyr(Bn)-Ser(Bn)-OMe)
0.27 | COC(=O)[C@@H](COCc1ccccc1)NC(=O)[C@H](Cc1ccc(OCc2ccccc2)cc1)NC(=O)[C@H](Cc1c[nH]cn1)NC(=O)OCc1ccccc1 [Example 9, N-[N-[N-[(Phenylmethoxy)carbonyl]-L-histidyl]-O-(phenylmethyl)-L-tyrosyl]-O-(phenylmethyl)-D-serine, methyl ester] (Cbz-His-Tyr(Bn)-[dS](Bn)-OMe)
0.17 | CCNC(=O)[C@H](COCc1ccccc1)NC(=O)[C@H](Cc1ccc(OCc2ccccc2)cc1)NC(=O)[C@H](Cc1c[nH]cn1)NC(=O)OCc1ccccc1 [Example 11, N-Ethyl-Nα -[N-[N-[(phenylmethoxy)carbonyl]-L-histidyl]-O-(phenylmethyl)-L-tyrosyl]-O-(phenylmethyl)-L-serinamide] (Cbz-His-Tyr(Bn)-Ser(Bn)-NHEt)
